Paper PMC11027154 (Journal of the American Chemical Society, 2024)
Bridge positions count the residues as written; N and C are the ends. Square brackets hold non-standard residues; d marks the D form. Peptide text beside a SMILES is read from it. * marks the point of attachment. X1 = C[C@@H]1NC(=O)[C@H](CC(=O)O)NC(=O)[C@@H](N)CSCc2cc3cc(c2)CSC[C@@H](C(=O)*)NC(=O)[C@H](CSC3)NC(=O)[C@H](CO)NC1=O; FITC = O=C1OC2(c3ccc(O)cc3Oc3cc(O)ccc32)c2ccc(NC(=S)*)cc21; S5 = C=CCCC[C@](C)(N)C(=O)O; βAla = NCCC(=O)O

Tests used:
circular dichroism = conditions: PBS, pH 7.4, 25 °C
[1] = In vitro peptide stability in human serum; format: in vitro ADME; conditions: 25% human serum, 37 °C; for degradation behaviour in serum: up to 48 h, LC-MS
Description: The test compounds were separately incubated with 25% human serum at 37 °C; residual starting materials were monitored as a function of time, and degradation products were characterized using LC-MS (Figure 5c). […] Besides terminal degradation, we also observed ring-opening products by hydrolysis of amide bonds within the hydrocarbon macrocycles in two stapled peptides (Figures S28, S29).

cyclin A1 with a His tag = molecular target: T1, cyclin A1 with a His tag (Homo sapiens, UniProt P78396); experiment: Direct fluorescence polarization (FP) binding to cyclin A1; conditions: Figure 5b; FITC-labeled peptide, PBS, 3 h; read-out: FP assay for cyclin A: Kd^app
T1 construct: His; purchased Sino Biological
T1 sequence (P78396 whole entry): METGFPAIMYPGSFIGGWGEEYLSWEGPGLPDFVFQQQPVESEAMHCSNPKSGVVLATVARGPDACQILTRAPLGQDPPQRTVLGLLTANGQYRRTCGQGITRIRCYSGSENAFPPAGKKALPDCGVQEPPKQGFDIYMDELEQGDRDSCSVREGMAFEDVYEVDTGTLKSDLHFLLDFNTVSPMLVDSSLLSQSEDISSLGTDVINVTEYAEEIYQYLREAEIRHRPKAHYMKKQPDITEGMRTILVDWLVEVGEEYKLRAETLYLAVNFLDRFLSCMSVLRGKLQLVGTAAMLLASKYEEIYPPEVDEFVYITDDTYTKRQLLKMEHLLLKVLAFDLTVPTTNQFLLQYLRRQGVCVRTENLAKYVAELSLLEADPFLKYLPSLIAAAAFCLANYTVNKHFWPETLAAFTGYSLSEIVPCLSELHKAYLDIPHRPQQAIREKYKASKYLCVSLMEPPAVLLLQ

[2] = 25 % human serum diluted in RPMI medium; conditions: 37 °C, up to 48 hours (dual 0 – 72 hours in Figure S24)
[3] = residual starting material vs time, LC-MS/HPLC, 95% confidence interval in parentheses

Compound	helicity (circular dichroism; 5-30 uM)	degradation behaviour in serum [1]	half-life [1, 3]	fragment found [2]	further results
CC[C@H](C)[C@H](NC(=O)[C@@H]1CSCc2cc3cc(c2)CSC[C@H](N)C(=O)N[C@@H](CC(=O)O)C(=O)N[C@@H](C)C(=O)N[C@@H](CO)C(=O)N[C@@H](CSC3)C(=O)N1)C(=O)N[C@@H](CCCNC(=N)N)C(=O)N[C@@H](CCC(=O)O)C(=O)N[C@H](C(=O)N[C@@H](CO)C(=O)N[C@@H](CC(C)C)C(=O)N[C@@H](CC(C)C)C(=O)N[C@@H](CCCCN)C(=O)N[C@@H](CCC(=O)O)C(=O)N[C@@H](Cc1ccc(O)cc1)C(N)=O)[C@@H](C)CC [BAMM] (X1-IREISLLKEY-NH2)	-5590 MRE222	hydrolyzed more slowly and formed stable byproducts	2.1 h		
CC[C@H](C)[C@H](NC(=O)[C@H](C)NC(=O)[C@@H](NC(=O)[C@H](CO)NC(=O)[C@H](C)NC(C)=O)[C@@H](C)O)C(=O)N[C@@H](CCCNC(=N)N)C(=O)N[C@@H](CCC(=O)O)C(=O)N[C@H](C(=O)N[C@@H](CO)C(=O)N[C@@H](CC(C)C)C(=O)N[C@@H](CC(C)C)C(=O)N[C@H]1CSCc2cc3cc(c2)CSC[C@H](NC(=O)[C@H](Cc2ccc(O)cc2)NC(=O)[C@H](CCC(=O)O)NC1=O)C(=O)NCC(=O)N[C@H](C(N)=O)CSC3)[C@@H](C)CC [BSM]	-5000 MRE222	hydrolyzed more slowly and formed stable byproducts	2.6 h		
CC[C@H](C)[C@H](NC(=O)[C@@H]1CSCc2cc3cc(c2)CSC[C@H](N)C(=O)N[C@@H](CC(=O)O)C(=O)N[C@@H](C)C(=O)N[C@@H](CO)C(=O)N[C@@H](CSC3)C(=O)N1)C(=O)N[C@@H](CCCNC(=N)N)C(=O)N[C@@H](CCC(=O)O)C(=O)N[C@H](C(=O)N[C@@H](CO)C(=O)N[C@@H](CC(C)C)C(=O)N[C@@H](CC(C)C)C(=O)N[C@H]1CSCc2cc3cc(c2)CSC[C@H](NC(=O)[C@H](Cc2ccc(O)cc2)NC(=O)[C@H](CCC(=O)O)NC1=O)C(=O)NCC(=O)N[C@H](C(N)=O)CSC3)[C@@H](C)CC [dual]		oxidation (sulfoxides, M^++16) but not proteolysis was observed			helicity (circular dichroism; 13 uM): -11300 MRE222; t1/2 relative to staple-2 [1]: > 5.6 ×; t1/2 relative to the linear control [1]: > 49 ×; half-life (h) [1, 3]: 39.5 (>19.3) h
CC[C@H](C)[C@@H]1NC(=O)[C@H](C)NC(=O)[C@@](C)(NC(=O)[C@H](CO)NC(=O)[C@H](C)NC(=O)CCNC(=O)CCNC(=O)CCNC(=S)Nc2ccc3c(c2)C(=O)OC32c3ccc(O)cc3Oc3cc(O)ccc32)CCCC=CCCC[C@@](C)(C(=O)N[C@H](C(=O)N[C@@H](CO)C(=O)N[C@@H](CC(C)C)C(=O)N[C@@H](CC(C)C)C(=O)N[C@@H](CCCCN)C(=O)N[C@@H](CCC(=O)O)C(=O)N[C@@H](Cc2ccc(O)cc2)C(N)=O)[C@@H](C)CC)NC(=O)[C@H](CCCNC(=N)N)NC1=O [staple-1-f] ({FITC-βAla-βAla-βAla}-AS[S5]AIR[S5]ISLLKEY-NH2; staple 3-7)					Kd (cyclin A1 with a His tag): 1.47 ± 0.21 µM
CC[C@H](C)[C@@H]1NC(=O)[C@H](C)NC(=O)[C@@](C)(NC(=O)[C@H](CO)NC(=O)[C@H](C)NC(C)=O)CCCC=CCCC[C@@](C)(C(=O)N[C@H](C(=O)N[C@@H](CO)C(=O)N[C@@H](CC(C)C)C(=O)N[C@@H](CC(C)C)C(=O)N[C@@H](CCCCN)C(=O)N[C@@H](CCC(=O)O)C(=O)N[C@@H](Cc2ccc(O)cc2)C(N)=O)[C@@H](C)CC)NC(=O)[C@H](CCCNC(=N)N)NC1=O [staple-1] (Ac-AS[S5]AIR[S5]ISLLKEY-NH2; staple 3-7)		overall higher stabilities	5.7 h		helicity (circular dichroism; 17 uM): -13200 MRE222
CC[C@H](C)[C@H](NC(=O)[C@H](C)NC(=O)[C@@H](NC(=O)[C@H](CO)NC(=O)[C@H](C)NC(C)=O)[C@@H](C)O)C(=O)N[C@@H](CCCNC(=N)N)C(=O)N[C@@]1(C)CCCC=CCCC[C@@](C)(C(=O)N[C@@H](CCCCN)C(=O)N[C@@H](CCC(=O)O)C(=O)N[C@@H](Cc2ccc(O)cc2)C(N)=O)NC(=O)[C@H](CC(C)C)NC(=O)[C@H](CO)NC(=O)[C@H]([C@@H](C)CC)NC1=O [staple-2] (Ac-ASTAIR[S5]ISL[S5]KEY-NH2; staple 7-11)		overall higher stabilities	7 h		helicity (circular dichroism; 22 uM): -11100 MRE222
Ac-ASTAIREISLLCEYCGC				CEYCGC (BSM bicycle), major	
Ac-ASTAIREISLLKEY-NH2	-3310 MRE222				
CDASCCIREISLLCEYCGC				sulfoxide dual; oxidized dual, 8h	
CDASCCIREISLLKEY				CDASCCIRE (BAMM bicycle with three residues), major	
